Measured values taken from the NIST ThermoML archive (doi:10.1016/j.fluid.2017.03.021).
± gives the expanded uncertainty stated by the source.

Conditions: 101.33 kPa, Liquid, Vibrating tube method

CCCCCC[n+]1ccn(C)c1.O=S(=O)([N-]S(=O)(=O)C(F)(F)F)C(F)(F)F
mass density (293.15 K): 1377.1 ± 0.6 kg/m3
mass density (298.15 K): 1372.5 ± 0.6 kg/m3
mass density (303.15 K): 1367.8 ± 0.6 kg/m3
mass density (308.15 K): 1363.5 ± 0.5 kg/m3
mass density (313.15 K): 1358.7 ± 0.5 kg/m3
mass density (318.15 K): 1354.3 ± 0.5 kg/m3
mass density (323.15 K): 1349.6 ± 0.5 kg/m3
mass density (328.15 K): 1345.2 ± 0.5 kg/m3
mass density (333.15 K): 1340.5 ± 0.5 kg/m3
mass density (338.15 K): 1336.2 ± 0.5 kg/m3
mass density (343.15 K): 1331.6 ± 0.5 kg/m3
